Read-outs that look alike come from different tables or passages of the source.
Experiments:
[1] = tested on: SMN2 minigene (full length SMN2 minigene mRNA containing SMN2 exon 7); test: SMN2 minigene mRNA splicing RT-qPCR assay in cultured cells; format: cell-based, human; conditions: Homo sapiens, HEK293-H, read-out: EC1.5x for production of full length SMN2 mRNA
How it was run: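 Lysates → one-step RT-qPCR, minigene-specific primers (0.4 μM final) + GAPDH multiplex, 40 cycles. FL/GAPDH vs DMSO; EC1.5x, star-binned.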

Smn protein = Smn protein assay in cultured cells (SMN HTRF); format: cell-based, human; conditions: 48 hours; for maximum fold (Fold) increase of Smn protein: SMA patient fibroblast cells, 7-point concentration data, fold increase relative to vehicle control (SMN HTRF); for EC1.5x (concentration giving 1.5-fold Smn protein increase): SMA Type 1 patient fibroblast cells (GM03813), 7-point concentration curve, SMN HTRF, concentration producing 1.5 times Smn protein vs DMSO vehicle control, read-out: EC1.5x for Smn protein expression
How it was run: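 Smn in SMA fibroblast lysates, measured by anti-SMN HTRF after 48 h compound exposure; EC1.5x from fold change over vehicle.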

[2] = HEK293H cells stably transfected with SMN2-A minigene, 24 hours, 7-point concentration curve, 1.5-fold relative to vehicle-treated cells

SMILES | melting point | EC (1.5-fold) [1, 2] [µM] | maximum fold (Fold) increase of Smn protein (Smn protein) | EC1.5x (concentration giving 1.5-fold Smn protein increase) (Smn protein) [nM] | EC (1.5-fold) ([1]; 24 h) [µM]
O=c1oc2cc(N3CCNCC3)ccc2cc1-c1nc2cncnc2[nH]1 [Compound 314, 7-(piperazin-1-yl)-3-(9H-purin-8-yl)-2H-chromen-2-one] | 291 to 297 °C | 1 to 3 | * (maximum fold increase of ≤1.2) | – | –
Cc1ccc2nc(-c3cc4ccc(CNC(C)CO)cc4oc3=O)cn2c1 (stereo not shown) [Compound 251, 7-{[(1-hydroxypropan-2-yl)amino]methyl}-3-(6-methylimidazo[1,2-a]pyridin-2-yl)-2H-chromen-2-one] | 224 to 227 °C | 3 to 30 | * (maximum fold increase of ≤1.2) | – | –
Cc1cn2cc(-c3cc4ccc(N5CCCNCC5)cc4oc3=O)nc2c(C(F)(F)F)n1 [Cpd 607, 7-(1,4-diazepan-1-yl)-3-[6-methyl-8-(trifluoromethyl)imidazo[1,2-a]pyrazin-2-yl]-2H-chromen-2-one] | > 300 °C | < 0.1 | *** (fold increase between >1.35 and ≤1.5) | 300 to 1000 | –
COc1cccc(-c2cc3c(F)cc(N4CCNCC4)cc3oc2=O)n1 [Compound 468, 5-fluoro-3-(6-methoxypyridin-2-yl)-7-(piperazin-1-yl)-2H-chromen-2-one] | 231 to 236 °C | 0.3 to 1 | ** (fold increase between >1.2 and ≤1.35) | – | –
Cc1cn2cc(-c3cc4ccc(N5CCN6CCCCC6C5)cc4oc3=O)nc2c(C)n1 (stereo not shown) [Compound 633, 3-(6,8-dimethylimidazo[1,2-a]pyrazin-2-yl)-7-(octahydro-2H-pyrido[1,2-a]pyrazin-2-yl)-2H-chromen-2-one] | 225 to 227 °C | < 0.1 | *** (fold increase between >1.35 and ≤1.5) | – | –
Cc1cc(F)c2nc(-c3cc4ccc(N5CCNC6(CCCC6)C5)cc4oc3=O)cn2c1 [Compound 599, 7-(6,9-diazaspiro[4.5]dec-9-yl)-3-(8-fluoro-6-methylimidazo[1,2-a]pyridin-2-yl)-2H-chromen-2-one] | 236 to 242 °C | 0.1 to 0.3 | *** (fold increase between >1.35 and ≤1.5) | – | –
Cc1nccc(-c2cc3ccc(N4CCNCC4)cc3oc2=O)n1.Cl [Cpd 274, 3-(2-methylpyrimidin-4-yl)-7-(piperazin-1-yl)-2H-chromen-2-one hydrochloride] | 200 °C (dec.) | – | ** (fold increase between >1.2 and ≤1.35) | – | 1 to 3
CN1CCCN(c2cc(F)c3cc(-c4cn5ccsc5n4)c(=O)oc3c2)CC1 [Compound 373, 5-fluoro-3-(imidazo[2,1-b][1,3]thiazol-6-yl)-7-(4-methyl-1,4-diazepan-1-yl)-2H-chromen-2-one] | 205 to 207 °C | < 0.1 | **** (fold increase between >1.5 and ≤1.65) | 300 to 1000 | –
Cc1cn2cc(-c3cc4ccc(N5CCCN(C)CC5)cc4oc3=O)ccc2n1 [Compound 653, 7-(4-methyl-1,4-diazepan-1-yl)-3-(2-methylimidazo[1,2-a]pyridin-6-yl)-2H-chromen-2-one] | 175 to 178 °C | 0.1 to 0.3 | *** (fold increase between >1.35 and ≤1.5) | – | –
C[C@H]1CN(c2cc(F)c3cc(-c4cn5cccc(Cl)c5n4)c(=O)oc3c2)CCN1 [Compound 393, 3-(8-chloroimidazo[1,2-a]pyridin-2-yl)-5-fluoro-7-[(3S)-3-methylpiperazin-1-yl]-2H-chromen-2-one] | 268 to 278 °C | 0.3 to 1 | *** (fold increase between >1.35 and ≤1.5) | – | –
Cc1cccc2[nH]c(-c3cc4ccc(N5CCNCC5)cc4oc3=O)nc12 [Compound 394, 3-(4-methyl-1H-benzimidazol-2-yl)-7-(piperazin-1-yl)-2H-chromen-2-one] | 206 to 211 °C | 3 to 30 | * (maximum fold increase of ≤1.2) | – | –
CCc1cc(C)cn2cc(-c3cc4ccc(N5CCNCC5)cc4oc3=O)nc12 [Compound 334, 3-(8-ethyl-6-methylimidazo[1,2-a]pyridin-2-yl)-7-(piperazin-1-yl)-2H-chromen-2-one] | 198 to 208 °C | 0.1 to 0.3 | * (maximum fold increase of ≤1.2) | – | –
Cc1cc(F)c2nc(-c3cc4ccc(N5CCNC6(CCC6)C5)cc4oc3=O)cn2c1 [Compound 598, 7-(5,8-diazaspiro[3.5]non-8-yl)-3-(8-fluoro-6-methylimidazo[1,2-a]pyridin-2-yl)-2H-chromen-2-one] | 244 to 254 °C | 0.1 to 0.3 | *** (fold increase between >1.35 and ≤1.5) | – | –
Cc1csc(-c2cc3ccc(N4CCCN(C)CC4)cc3oc2=O)n1 [Compound 285, 7-(4-methyl-1,4-diazepan-1-yl)-3-(4-methyl-1,3-thiazol-2-yl)-2H-chromen-2-one] | 190 to 200 °C | 1 to 3 | * (maximum fold increase of ≤1.2) | – | –

Further lines, with some results ahead:

melting point | SMILES | EC (1.5-fold) [1, 2] [µM] | maximum fold (Fold) increase of Smn protein (Smn protein) | EC1.5x (concentration giving 1.5-fold Smn protein increase) (Smn protein) [nM] | EC (1.5-fold) ([1]; 24 h) [µM]
257 to 267 °C | C[C@@H]1CN(c2ccc3cc(-c4cn5cc(C6CC6)cc(F)c5n4)c(=O)oc3c2)C[C@H](C)N1 [Compound 497, 3-(6-cyclopropyl-8-fluoroimidazo[1,2-a]pyridin-2-yl)-7-[(3R,5S)-3,5-dimethylpiperazin-1-yl]-2H-chromen-2-one] | 0.3 to 1 | * (maximum fold increase of ≤1.2) | – | –
143 to 145 °C | COc1ccc(-c2cc3ccc(N4CCN[C@H](C)C4)cc3oc2=O)cc1OC [Compound 382, 3-(3,4-dimethoxyphenyl)-7-[(3R)-3-methylpiperazin-1-yl]-2H-chromen-2-one] | 1 to 3 | * (maximum fold increase of ≤1.2) | – | –
206 to 210 °C | Cc1nn2cc(-c3cc4ccc(N5CCN[C@H](C)C5)cc4oc3=O)nc2s1 [Compound 483, 3-(2-methylimidazo[2,1-b][1,3,4]thiadiazol-6-yl)-7-[(3R)-3-methylpiperazin-1-yl]-2H-chromen-2-one] | 0.1 to 0.3 | *** (fold increase between >1.35 and ≤1.5) | 1000 to 3000 | –
210 to 213 °C | O=c1oc2cc(N3CCCNCC3)ccc2cc1-c1cn2cccc(F)c2n1 [Compound 357, 7-(1,4-diazepan-1-yl)-3-(8-fluoroimidazo[1,2-a]pyridin-2-yl)-2H-chromen-2-one] | 0.1 to 0.3 | *** (fold increase between >1.35 and ≤1.5) | – | –
164 to 167 °C | C[C@@H]1CN(c2ccc3cc(-c4cc5ccccn5c4)c(=O)oc3c2)C[C@H](C)N1 [Compound 553, 7-[(3R,5S)-3,5-dimethylpiperazin-1-yl]-3-(indolizin-2-yl)-2H-chromen-2-one] | 0.3 to 1 | * (maximum fold increase of ≤1.2) | – | –
205 to 207 °C | Cc1cn2cc(-c3cc4ccc(N5CCN(C)[C@@H](C)C5)cc4oc3=O)ccc2n1 [Compound 675, 7-[(3S)-3,4-dimethylpiperazin-1-yl]-3-(2-methylimidazo[1,2-a]pyridin-6-yl)-2H-chromen-2-one] | < 0.1 | **** (fold increase between >1.5 and ≤1.65) | 1000 to 3000 | –

Source: patent USRE47689E1, “Compounds for treating spinal muscular atrophy” (PTC Therapeutics, Inc., priority 2011, dated 2019)
